Assay results: patent US10251395B2, “Substituted furano-/thienocycloalkylamino-2-pyrimidine derivatives and use thereof for controlling undesired plant growth” (Bayer CropScience Aktiengesellschaft, priority 2015, dated 2019)

What was measured:
Type in all cases: in vivo
Echinochloa crus-galli [1] = assay: Pre-emergence herbicidal effect; settings: scored visually after 3 weeks
Summary of the method: (§1)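 Scoring: visual, 3 weeks, % vs untreated (100% = died). Treatment: WP or EC in water, 0.2% wetting agent, sprayed on covering soil after sowing in sandy loam.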

Polygonum convolvulus [2] = assay: Pre-emergence herbicidal effect; settings: scored visually after 3 weeks
Summary of the method: as §1

Viola tricolor [3] = assay: Pre-emergence herbicidal effect; settings: scored visually after 3 weeks
Summary of the method: as §1

Alopecurus myosuroides [4] = assay: Pre-emergence herbicidal effect; settings: scored visually after 3 weeks
Summary of the method: as §1

Veronica persica [5] = assay: Pre-emergence herbicidal effect; settings: scored visually after 3 weeks
Summary of the method: as §1

Stellaria media [6] = assay: Pre-emergence herbicidal effect; settings: scored visually after 3 weeks
Summary of the method: as §1

Cyperus esculentus = assay: Pre-emergence herbicidal effect; settings: Dosage 320 g/ha, scored visually after 3 weeks
Summary of the method: as §1

Abutilon theophrasti [7] = assay: Pre-emergence herbicidal effect; settings: Dosage 320 g/ha, scored visually after 3 weeks
Summary of the method: as §1

Matricaria inodora [8] = assay: Pre-emergence herbicidal effect; settings: scored visually after 3 weeks
Summary of the method: as §1

Avena fatua [9] = assay: Pre-emergence herbicidal effect; settings: Dosage 320 g/ha, scored visually after 3 weeks
Summary of the method: as §1

Lolium multiflorum [10] = assay: Pre-emergence herbicidal effect; settings: scored visually after 3 weeks
Summary of the method: as §1

Amaranthus retroflexus [11] = assay: Pre-emergence herbicidal effect; settings: scored visually after 3 weeks
Summary of the method: as §1

Setaria viridis [12] = assay: Pre-emergence herbicidal effect; settings: scored visually after 3 weeks
Summary of the method: as §1

Echinochloa crus-galli [13] = assay: Post-emergence herbicidal effect; settings: assessed visually after about 3 weeks vs untreated controls
Summary of the method: (§2)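 Herbicidal effect was rated visually roughly 3 weeks after foliar treatment, as % versus untreated plants, with 0% meaning the same as controls and 100% meaning dead. Plants were treated at the one-leaf stage in the greenhouse with aqueous WP or EC sprays at 600–800 L/ha containing 0.2% wetter.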

Polygonum convolvulus [14] = assay: Post-emergence herbicidal effect; settings: 320 g/ha, assessed visually after about 3 weeks vs untreated controls
Summary of the method: as §2

Viola tricolor [15] = assay: Post-emergence herbicidal effect; settings: assessed visually after about 3 weeks vs untreated controls
Summary of the method: as §2

Alopecurus myosuroides [16] = assay: Post-emergence herbicidal effect; settings: 320 g/ha, assessed visually after about 3 weeks vs untreated controls
Summary of the method: as §2

Ipomoea purpurea = assay: Post-emergence herbicidal effect; settings: assessed visually after about 3 weeks vs untreated controls
Summary of the method: as §2

Veronica persica [17] = assay: Post-emergence herbicidal effect; settings: 320 g/ha, assessed visually after about 3 weeks vs untreated controls
Summary of the method: as §2

Stellaria media [18] = assay: Post-emergence herbicidal effect; settings: assessed visually after about 3 weeks vs untreated controls
Summary of the method: as §2

Abutilon theophrasti [19] = assay: Post-emergence herbicidal effect; settings: assessed visually after about 3 weeks vs untreated controls
Summary of the method: as §2

Matricaria inodora [20] = assay: Post-emergence herbicidal effect; settings: assessed visually after about 3 weeks vs untreated controls
Summary of the method: as §2

Avena fatua [21] = assay: Post-emergence herbicidal effect; settings: 320 g/ha, assessed visually after about 3 weeks vs untreated controls
Summary of the method: as §2

Lolium multiflorum [22] = assay: Post-emergence herbicidal effect; settings: assessed visually after about 3 weeks vs untreated controls
Summary of the method: as §2

Amaranthus retroflexus [23] = assay: Post-emergence herbicidal effect; settings: assessed visually after about 3 weeks vs untreated controls
Summary of the method: as §2

Setaria viridis [24] = assay: Post-emergence herbicidal effect; settings: assessed visually after about 3 weeks vs untreated controls
Summary of the method: as §2

Question: `Cc1cc2c(s1)CCC[C@H]2Nc1ncc(I)c(N)n1` [compound 173] was tested. Which “ECHCG pre-emergence efficacy (herbicidal activity)” value (Echinochloa crus-galli [1]; Dosage 80 g/ha) did it give?
Answer: Its value is 100%.

Question: What about the “ECHCG pre-emergence efficacy (herbicidal activity)” value (Echinochloa crus-galli [1]; Dosage 320 g/ha) of the same compound?
Answer: Its value is 100%.

Question: What about the “POLCO pre-emergence efficacy (herbicidal activity)” value (Polygonum convolvulus [2]; Dosage 80 g/ha) of the same compound?
Answer: Its value is 90%.

Question: What about the “POLCO pre-emergence efficacy (herbicidal activity)” value (Polygonum convolvulus [2]; Dosage 320 g/ha) of the same compound?
Answer: Its value is 100%.

Question: What about the “VIOTR pre-emergence efficacy (herbicidal activity)” value (Viola tricolor [3]; Dosage 80 g/ha) of the same compound?
Answer: The value was 100%.

Question: And the “VIOTR pre-emergence efficacy (herbicidal activity)” value (Viola tricolor [3]; Dosage 320 g/ha)?
Answer: The value was 100%.

Question: What about the “ALOMY pre-emergence efficacy (herbicidal activity)” value (Alopecurus myosuroides [4]; Dosage 80 g/ha) of the same compound?
Answer: Its value is 60%.

Question: What about the “ALOMY pre-emergence efficacy (herbicidal activity)” value (Alopecurus myosuroides [4]; Dosage 320 g/ha) of the same compound?
Answer: The value was 80%.

Question: And the “VERPE pre-emergence efficacy (herbicidal activity)” value (Veronica persica [5]; Dosage 80 g/ha)?
Answer: The value was 90%.

Question: What about the “VERPE pre-emergence efficacy (herbicidal activity)” value (Veronica persica [5]; Dosage 320 g/ha) of the same compound?
Answer: Its value is 100%.

Question: What about the “STEME pre-emergence efficacy (herbicidal activity)” value (Stellaria media [6]; Dosage 80 g/ha) of the same compound?
Answer: Its value is 100%.

Question: What about the “STEME pre-emergence efficacy (herbicidal activity)” value (Stellaria media [6]; Dosage 320 g/ha) of the same compound?
Answer: Its value is 100%.

Question: What about the “CYPES pre-emergence efficacy (herbicidal activity)” value (Cyperus esculentus) of the same compound?
Answer: Its value is 60%.

Question: And the “ABUTH pre-emergence efficacy (herbicidal activity)” value (Abutilon theophrasti [7])?
Answer: Its value is 100%.

Question: And the “MATIN pre-emergence efficacy (herbicidal activity)” value (Matricaria inodora [8]; Dosage 80 g/ha)?
Answer: Its value is 100%.

Question: What about the “MATIN pre-emergence efficacy (herbicidal activity)” value (Matricaria inodora [8]; Dosage 320 g/ha) of the same compound?
Answer: Its value is 100%.

Question: And the “AVEFA pre-emergence efficacy (herbicidal activity)” value (Avena fatua [9])?
Answer: Its value is 60%.

Question: What about the “LOLMU pre-emergence efficacy (herbicidal activity)” value (Lolium multiflorum [10]; Dosage 80 g/ha) of the same compound?
Answer: The value was 60%.

Question: And the “LOLMU pre-emergence efficacy (herbicidal activity)” value (Lolium multiflorum [10]; Dosage 320 g/ha)?
Answer: The value was 100%.

Question: What about the “AMARE pre-emergence efficacy (herbicidal activity)” value (Amaranthus retroflexus [11]; Dosage 80 g/ha) of the same compound?
Answer: The value was 100%.

Question: And the “AMARE pre-emergence efficacy (herbicidal activity)” value (Amaranthus retroflexus [11]; Dosage 320 g/ha)?
Answer: Its value is 100%.

Question: And the “SETVI pre-emergence efficacy (herbicidal activity)” value (Setaria viridis [12]; Dosage 80 g/ha)?
Answer: Its value is 90%.

Question: What about the “SETVI pre-emergence efficacy (herbicidal activity)” value (Setaria viridis [12]; Dosage 320 g/ha) of the same compound?
Answer: The value was 100%.

Question: What about the “post-emergence efficacy ECHCG” value (Echinochloa crus-galli [13]; 80 g/ha) of the same compound?
Answer: The value was 100%.

Question: What about the “post-emergence efficacy ECHCG” value (Echinochloa crus-galli [13]; 320 g/ha) of the same compound?
Answer: The value was 100%.

Question: What about the “post-emergence efficacy POLCO” value (Polygonum convolvulus [14]) of the same compound?
Answer: The value was 60%.

Question: What about the “post-emergence efficacy VIOTR” value (Viola tricolor [15]; 80 g/ha) of the same compound?
Answer: The value was 90%.

Question: And the “post-emergence efficacy VIOTR” value (Viola tricolor [15]; 320 g/ha)?
Answer: The value was 90%.

Question: And the “post-emergence efficacy ALOMY” value (Alopecurus myosuroides [16])?
Answer: Its value is 100%.

Question: What about the “post-emergence efficacy PHBPU” value (Ipomoea purpurea; 80 g/ha) of the same compound?
Answer: Its value is 90%.

Question: And the “post-emergence efficacy PHBPU” value (Ipomoea purpurea; 320 g/ha)?
Answer: Its value is 100%.

Question: And the “post-emergence efficacy VERPE” value (Veronica persica [17])?
Answer: The value was 100%.

Question: What about the “post-emergence efficacy STEME” value (Stellaria media [18]; 80 g/ha) of the same compound?
Answer: The value was 100%.

Question: What about the “post-emergence efficacy STEME” value (Stellaria media [18]; 320 g/ha) of the same compound?
Answer: The value was 100%.

Question: What about the “post-emergence efficacy ABUTH” value (Abutilon theophrasti [19]; 80 g/ha) of the same compound?
Answer: Its value is 80%.

Question: What about the “post-emergence efficacy ABUTH” value (Abutilon theophrasti [19]; 320 g/ha) of the same compound?
Answer: Its value is 90%.

Question: What about the “post-emergence efficacy MATIN” value (Matricaria inodora [20]; 80 g/ha) of the same compound?
Answer: Its value is 60%.

Question: And the “post-emergence efficacy MATIN” value (Matricaria inodora [20]; 320 g/ha)?
Answer: The value was 90%.

Question: And the “post-emergence efficacy AVEFA” value (Avena fatua [21])?
Answer: Its value is 90%.

Question: What about the “post-emergence efficacy LOLMU” value (Lolium multiflorum [22]; 80 g/ha) of the same compound?
Answer: Its value is 60%.

Question: And the “post-emergence efficacy LOLMU” value (Lolium multiflorum [22]; 320 g/ha)?
Answer: The value was 90%.

Question: And the “post-emergence efficacy AMARE” value (Amaranthus retroflexus [23]; 80 g/ha)?
Answer: Its value is 90%.

Question: And the “post-emergence efficacy AMARE” value (Amaranthus retroflexus [23]; 320 g/ha)?
Answer: The value was 90%.

Question: And the “post-emergence efficacy SETVI” value (Setaria viridis [24]; 80 g/ha)?
Answer: Its value is 80%.

Question: What about the “post-emergence efficacy SETVI” value (Setaria viridis [24]; 320 g/ha) of the same compound?
Answer: Its value is 90%.
